Laboratory results reported in the NIST ThermoML archive (doi:10.1016/j.jct.2019.03.023).
Numbers after ± are expanded uncertainties.

Settings: isochoric method

CC(C)O [propan-2-ol]
mass density [kg/m3]
Settings | Gas | Liquid
380.35 K | – | 697.69 ± 1.4
451.83 K | – | 581.06 ± 1.2
507.95 K | – | 343.1 ± 2.4
508.16 K | – | 329.2 ± 2.8
508.28 K | – | 324.5 ± 2.8
508.51 K | 234.3 ± 4.5 | –
508.68 K | – | 293.3 ± 3.2
508.69 K | – | 288.99 ± 3.5
508.7 K | 255.8 ± 4.6 | –
508.71 K | – | 281.9 ± 4
508.72 K | 266.3 ± 6.1 | 274 ± 4.6
